Data reported in patent US20240228488A1 (TAKEDA PHARMACEUTICAL COMPANY LIMITED, priority 2021, published 2024).

Experiments:
[1] = molecular target: human activated kallikrein enzyme (Homo sapiens, UniProt P03952); experiment: Plasma kallikrein inhibition, fluorogenic PFR-AMC substrate, 500 pM activated kallikrein format; format: biochemical; settings: 500 pM activated kallikrein, 300 uM PFR-AMC, 30 min preincubation, 10 min reaction; read-out: Primary Dose Response Assay: Average EC50
How it was run: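 Enzyme (500 pM) was preincubated with inhibitor for 30 min at room temperature in 20 mM Tris pH 7.5, 1 mM EDTA, 150 mM NaCl, 0.1% PEG-400 and 0.1% Triton X-100. The reaction was started with 300 uM PFR-AMC, run 10 min, and fluorescence read at 460 nm (380 nm excitation). EC50 derived.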

[2] = molecular target: T1, plasma kallikrein (Homo sapiens, UniProt P03952); experiment: Neat human plasma assay, FXIIa contact pathway-activated, PFR-AMC substrate; format: biochemical; settings: citrated human plasma 78% final, 10 nM human FXIIa, 100 μM PFR-AMC; read-out: Human Plasma Assay: IC90
T1 construct: from tissue
How it was run: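 Citrated human plasma (78% final) with compound, contact-activated by 10 nM human FXIIa in pKal buffer pH 7.5, with 100 μM PFR-AMC. Fluorescence (360/480 nm) followed 5 min at room temperature; rates versus concentration fitted by 4-parameter equation for IC50/IC90.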

Sequence of human activated kallikrein enzyme (P03952 391-638 limits assumed): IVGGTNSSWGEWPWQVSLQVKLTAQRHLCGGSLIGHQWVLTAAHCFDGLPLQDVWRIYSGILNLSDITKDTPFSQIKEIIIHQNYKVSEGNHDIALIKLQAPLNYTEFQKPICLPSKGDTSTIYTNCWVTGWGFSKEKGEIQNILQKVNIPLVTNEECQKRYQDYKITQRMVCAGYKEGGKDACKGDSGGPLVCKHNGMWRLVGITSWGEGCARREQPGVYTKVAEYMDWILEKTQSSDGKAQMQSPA
Sequence of human activated kallikrein enzyme (P03952 20-390 partner limits assumed): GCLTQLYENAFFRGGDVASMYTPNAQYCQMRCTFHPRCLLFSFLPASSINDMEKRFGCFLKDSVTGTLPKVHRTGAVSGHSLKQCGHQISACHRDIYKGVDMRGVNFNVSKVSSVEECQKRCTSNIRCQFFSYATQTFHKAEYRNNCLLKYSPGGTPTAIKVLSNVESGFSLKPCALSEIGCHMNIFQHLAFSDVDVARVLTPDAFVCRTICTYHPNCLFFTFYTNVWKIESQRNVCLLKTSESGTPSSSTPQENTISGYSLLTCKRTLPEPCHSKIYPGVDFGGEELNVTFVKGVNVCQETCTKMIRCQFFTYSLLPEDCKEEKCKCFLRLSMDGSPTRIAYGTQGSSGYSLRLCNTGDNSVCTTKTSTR
T1 sequence (P03952 391-638 limits assumed): as the sequence (P03952 391-638 limits assumed) above
T1 sequence (P03952 20-390 partner limits assumed): as the sequence (P03952 20-390 partner limits assumed) above

| EC50 [1] | IC90 [2] | SMILES |
| --- | --- | --- |
| < 1 nM | 400 to 1500 nM | CN1C(=O)CN(c2cc(C3CC3)cn3cc(CNc4ccnc(NC(=O)[C@H]5C[C@@H]5c5cccc(Cl)c5)c4)nc23)C1=O [Example I-209, (1S,2S)-2-(3-chlorophenyl)-N-(4-(((6-cyclopropyl-8-(3-methyl-2,4-dioxoimidazolidin-1-yl)imidazo[1,2-a]pyridin-2-yl)methyl)amino)pyridin-2-yl)cyclopropane-1-carboxamide] |
| < 1 nM | < 400 nM | Cc1ccnc([C@H]2C[C@@H]2C(=O)Nc2ncnc(NCc3cn4cc(C5CC5)cc(N5CC(=O)N(C)C5=O)c4n3)n2)n1 (racemic) [Example 623, rac-(1S*,2S*)—N-(4-(((6-cyclopropyl-8-(3-methyl-2,4-dioxoimidazolidin-1-yl)imidazo[1,2-a]pyridin-2-yl)methyl)amino)-1,3,5-triazin-2-yl)-2-(4-methylpyrimidin-2-yl)cyclo propane-1-carboxamide] |
| < 1 nM | 400 to 1500 nM | Cc1cncc([C@H]2C[C@@H]2C(=O)Nc2cc(NCc3cn4cc(C5CC5)cc(N5CC(=O)N(C)C5=O)c4n3)ncn2)n1 (racemic) [Example 498, rac-(1S*,2S*)-N-(6-(((6-cyclopropyl-8-(3-methyl-2,4-dioxoimidazolidin-1-yl)imidazo[1,2-a]pyridin-2-yl)methyl)amino)pyrimidin-4-yl)-2-(6-methylpyrazin-2-yl)cyclopropane-1-carboxamide] |
| < 1 nM | 400 to 1500 nM | Cc1ccnc([C@@H]2C[C@H]2C(=O)Nc2cc(OCc3cn4cc(C5CC5)cc(N5CC(=O)N(C)C5=O)c4n3)ncn2)n1 (racemic) [Example 28, rac-(1S*,2S*)—N-(6-((6-cyclopropyl-8-(3-methyl-2,4-dioxoimidazolidin-1-yl)imidazo[1,2-a]pyridin-2-yl)methoxy)pyrimidin-4-yl)-2-(4-methylpyrimidin-2-yl)cyclopropane-1-carboxamide] |
| 1 to 10 nM | 1500 to 10000 nM | O=C(Nc1cc(N2C[C@@H](O)C[C@@H]2c2cn3cc(C4CC4)ccc3n2)ncn1)[C@H]1C[C@@H]1c1cccc(Cl)c1 [Example 283, (1S,2S)-2-(3-chlorophenyl)-N-(6-((2R,4S)-2-(6-cyclopropylimidazo[1,2-a]pyridin-2-yl)-4-hydroxypyrrolidin-1-yl)pyrimidin-4-yl)cyclopropane-1-carboxamide] |
| 1 to 10 nM | 1500 to 10000 nM | Cc1ccnc([C@H]2C[C@@H]2C(=O)Nc2cc(N3C[C@@H](O)C[C@@H]3c3cn4cc(C5CC5)ccc4n3)ncn2)c1 (relative stereo) [Example 472, rac-(1S*,2S*)-N-(6-((2R,4S)-2-(6-cyclopropylimidazo[1,2-a]pyridin-2-yl)-4-hydroxypyrrolidin-1-yl)pyrimidin-4-yl)-2-(4-methylpyridin-2-yl)cyclopropane-1-carboxamide] |
| < 1 nM | < 400 nM | O=C(Nc1cc(NCc2cn3cc(C4CC4)cc(N4CC5CC5C4=O)c3n2)ncn1)[C@H]1C[C@@H]1c1cc(Cl)ccn1 (stereo partly drawn) [Example 327, (1S,2S)-2-(4-chloropyridin-2-yl)-N-(6-(((6-cyclopropyl-8-(2-oxo-3-azabicyclo[3.1.0]hexan-3-yl)imidazo[1,2-a]pyridin-2-yl)methyl)amino)pyrimidin-4-yl)cyclopropane-1-carboxamide] |
| < 1 nM | 1500 to 10000 nM | O=C(Nc1cc(NCc2cn3cc(C4CC4)cc(N4CCOC4=O)c3n2)ncn1)[C@H]1C[C@@H]1c1cccc(Cl)c1 [Example I-174, (1S,2S)-2-(3-chlorophenyl)-N-(6-(((6-cyclopropyl-8-(2-oxooxazolidin-3-yl)imidazo[1,2-a]pyridin-2-yl)methyl)amino)pyrimidin-4-yl)cyclopropane-1-carboxamide] |
| < 1 nM | 400 to 1500 nM | Cc1ccnc([C@H]2C[C@@H]2C(=O)Nc2nccc(N3C[C@@H](O)C[C@@H]3c3cn4cc(C5CC5)cc(N5CC(=O)N(C)C5=O)c4n3)n2)n1 (relative stereo) [Example 541, rac-(1S*,2S*)—N-(4-((2R,4S)-2-(6-cyclopropyl-8-(3-methyl-2,4-dioxoimidazolidin-1-yl)imidazo[1,2-a]pyridin-2-yl)-4-hydroxypyrrolidin-1-yl)pyrimidin-2-yl)-2-(4-methylpyrimidin-2-yl)cyclopropane-1-carboxamide] |
| 1 to 10 nM | < 400 nM | CN1C(=O)CN(c2cc(C3CC3)cn3cc([C@H]4C[C@H](O)CN4c4cc(NC(=O)[C@H]5C[C@@H]5c5cccc(Cl)c5)ncn4)nc23)C1=O [Example 480, (1S,2S)-2-(3-chlorophenyl)-N-(6-((2R,4S)-2-(6-cyclopropyl-8-(3-methyl-2,4-dioxoimidazolidin-1-yl)imidazo[1,2-a]pyridin-2-yl)-4-hydroxypyrrolidin-1-yl)pyrimidin-4-yl)cyclopropane-1-carboxamide] |
| < 1 nM | 400 to 1500 nM | CN1CC(F)(c2cc(C3CC3)cn3cc(CNc4cc(NC(=O)[C@H]5C[C@@H]5c5cccc(Cl)c5)ncn4)nc23)C1 [Example 402, (1S,2S)-2-(3-chlorophenyl)-N-(6-(((6-cyclopropyl-8-(3-fluoro-1-methylazetidin-3-yl)imidazo[1,2-a]pyridin-2-yl)methyl)amino)pyrimidin-4-yl)cyclopropane-1-carboxamide] |

The next lines start with the compound.

| SMILES | EC50 [1] | IC90 [2] |
| --- | --- | --- |
| CCN1CCN(c2cc(C3CC3)cn3cc(CNc4cc(NC(=O)[C@H]5C[C@@H]5c5nccc(C)n5)ncn4)nc23)CC1 [Example 383, (1S,2S)-N-(6-(((6-cyclopropyl-8-(4-ethylpiperazin-1-yl)imidazo[1,2-a]pyridin-2-yl)methyl)amino)pyrimidin-4-yl)-2-(4-methylpyrimidin-2-yl)cyclopropane-1-carboxamide] | < 1 nM | < 400 nM |
| Cc1ccnc([C@H]2C[C@@H]2C(=O)Nc2nc(C)nc(NCc3cn4cc(C5CC5)cc(N5CC(=O)N(C)C5=O)c4n3)n2)n1 (racemic) [Example 525, rac-(1S*,2S*)-N-(4-(((6-cyclopropyl-8-(3-methyl-2,4-dioxoimidazolidin-1-yl)imidazo[1,2-a]pyridin-2-yl)methyl)amino)-6-methyl-1,3,5-triazin-2-yl)-2-(4-methylpyrimidin-2-yl)cyclopropane-1-carboxamide] | < 1 nM | < 400 nM |
| CC(C)(O)c1cc(C2CC2)cn2cc(CNc3cc(NC(=O)[C@H]4C[C@@H]4c4cc(Cl)ccc4C#N)ncn3)nc12 (racemic) [Example 337, (rac-(1S*,2S*))-2-(5-chloro-2-cyanophenyl)-N-(6-(((6-cyclopropyl-8-(2-hydroxypropan-2-yl)imidazo[1,2-a]pyridin-2-yl)methyl)amino)pyrimidin-4-yl)cyclopropane-1-carboxamide] | 1 to 10 nM | 10000 to 48000 nM |
| O=C(Nc1cc(NCc2cn3cc(C4CC4)ccc3n2)ccn1)[C@H]1C[C@@H]1c1cc(Cl)ccc1-n1cnnn1 (racemic) [Example 287, rac-(1S*,2S*)-2-(5-chloro-2-(1H-tetrazol-1-yl)phenyl)-N-(4-(((6-cyclopropylimidazo[1,2-a]pyridin-2-yl)methyl)amino)pyridin-2-yl)cyclopropane-1-carboxamide] | < 1 nM | 10000 to 48000 nM |
| O=C(Nc1cc(NCc2cn3cc(C4CC4)ccc3n2)cnn1)[C@H]1C[C@@H]1c1cccc(Cl)c1 (racemic) [Example 101, rac-(1S*,2S*)-2-(3-chlorophenyl)-N-(5-(((6-cyclopropylimidazo[1,2-a]pyridin-2-yl)methyl)amino)pyridazin-3-yl)cyclopropane-1-carboxamide] | 1 to 10 nM | 10000 to 48000 nM |
| Cc1ccnc([C@@]2(F)C[C@@H]2C(=O)Nc2cc(N[C@H](C)c3cn4cc(C5CC5)cc(N5CC(=O)N(C)C5=O)c4n3)nc(C)n2)n1 (racemic) [Example 546, rac-(1S*,2S*)—N-(6-(((R)-1-(6-cyclopropyl-8-(3-methyl-2,4-dioxoimidazolidin-1-yl)imidazo[1,2-a]pyridin-2-yl)ethyl)amino)-2-methylpyrimidin-4-yl)-2-fluoro-2-(4-methylpyrimidin-2-yl)cyclopropane-1-carboxamide] | < 1 nM | 400 to 1500 nM |
| Cc1ccnc([C@H]2C[C@@H]2C(=O)Nc2cc(N(C)Cc3cn4cc(C5CC5)cc(N5CC(=O)N(CC(C)(C)O)C5=O)c4n3)ncn2)n1 [Example 368, (1S,2S)-N-(6-(((6-cyclopropyl-8-(3-(2-hydroxy-2-methylpropyl)-2,4-dioxoimidazolidin-1-yl)imidazo[1,2-a]pyridin-2-yl)methyl)(methyl)amino)pyrimidin-4-yl)-2-(4-methylpyrimidin-2-yl)cyclopropane-1-carboxamide] | < 1 nM | < 400 nM |
| CNCCc1cc(C2CC2)cn2cc(CNc3ccnc(NC(=O)[C@H]4C[C@@H]4c4cccc(Cl)c4)c3)nc12 [Example 607, (1S,2S)-2-(3-chlorophenyl)-N-(4-(((6-cyclopropyl-8-(2-(methylamino)ethyl)imidazo[1,2-a]pyridin-2-yl)methyl)amino)pyridin-2-yl)cyclopropane-1-carboxamide] | < 1 nM | < 400 nM |
| Cc1ccnc([C@H]2C[C@@H]2C(=O)Nc2cc(N[C@H](C)c3cn4cc(C5CC5)cc(N5CCOC5=O)c4n3)ncn2)n1 [Example 534, (1S,2S)-N-(6-(((R)-1-(6-cyclopropyl-8-(2-oxooxazolidin-3-yl)imidazo[1,2-a]pyridin-2-yl)ethyl)amino)pyrimidin-4-yl)-2-(4-methylpyrimidin-2-yl)cyclopropane-1-carboxamide] | < 1 nM | < 400 nM |
